The values below come from ChEMBL document CHEMBL2413039, “Novel N-hydroxyfurylacrylamide-based histone deacetylase (HDAC) inhibitors with branched CAP group (Part 2)” (Bioorg Med Chem, 2013).

Usually IC50 stands for the midpoint of a concentration-inhibition curve. For orientation: EC50 means the concentration at which the effect is half-maximal.

The species entered for test [1] is Homo sapiens. The experiment in a line: Selectivity ratio of IC50 for human recombinant HDAC1 to human recombinant HDAC6.
A further test deals with Histone deacetylase 4 (Homo sapiens, UniProt P56524). The experiment in a line: Inhibition of human recombinant HDAC4 using p53 residues 379-382 (RHKKAc) as substrate.
The species entered for test [2] is Homo sapiens. The experiment in a line: Selectivity ratio of IC50 for human recombinant HDAC4 to human recombinant HDAC6.
Another test has as its system PC-3. Kind of test: cells. The following applies: Homo sapiens, PC-3, 48 h. Type of test: functional, cell-based.
In test [3] the target is T1, Protein deacetylase HDAC6 (Homo sapiens, UniProt Q9UBN7).
T1 sequence (Q9UBN7 whole entry): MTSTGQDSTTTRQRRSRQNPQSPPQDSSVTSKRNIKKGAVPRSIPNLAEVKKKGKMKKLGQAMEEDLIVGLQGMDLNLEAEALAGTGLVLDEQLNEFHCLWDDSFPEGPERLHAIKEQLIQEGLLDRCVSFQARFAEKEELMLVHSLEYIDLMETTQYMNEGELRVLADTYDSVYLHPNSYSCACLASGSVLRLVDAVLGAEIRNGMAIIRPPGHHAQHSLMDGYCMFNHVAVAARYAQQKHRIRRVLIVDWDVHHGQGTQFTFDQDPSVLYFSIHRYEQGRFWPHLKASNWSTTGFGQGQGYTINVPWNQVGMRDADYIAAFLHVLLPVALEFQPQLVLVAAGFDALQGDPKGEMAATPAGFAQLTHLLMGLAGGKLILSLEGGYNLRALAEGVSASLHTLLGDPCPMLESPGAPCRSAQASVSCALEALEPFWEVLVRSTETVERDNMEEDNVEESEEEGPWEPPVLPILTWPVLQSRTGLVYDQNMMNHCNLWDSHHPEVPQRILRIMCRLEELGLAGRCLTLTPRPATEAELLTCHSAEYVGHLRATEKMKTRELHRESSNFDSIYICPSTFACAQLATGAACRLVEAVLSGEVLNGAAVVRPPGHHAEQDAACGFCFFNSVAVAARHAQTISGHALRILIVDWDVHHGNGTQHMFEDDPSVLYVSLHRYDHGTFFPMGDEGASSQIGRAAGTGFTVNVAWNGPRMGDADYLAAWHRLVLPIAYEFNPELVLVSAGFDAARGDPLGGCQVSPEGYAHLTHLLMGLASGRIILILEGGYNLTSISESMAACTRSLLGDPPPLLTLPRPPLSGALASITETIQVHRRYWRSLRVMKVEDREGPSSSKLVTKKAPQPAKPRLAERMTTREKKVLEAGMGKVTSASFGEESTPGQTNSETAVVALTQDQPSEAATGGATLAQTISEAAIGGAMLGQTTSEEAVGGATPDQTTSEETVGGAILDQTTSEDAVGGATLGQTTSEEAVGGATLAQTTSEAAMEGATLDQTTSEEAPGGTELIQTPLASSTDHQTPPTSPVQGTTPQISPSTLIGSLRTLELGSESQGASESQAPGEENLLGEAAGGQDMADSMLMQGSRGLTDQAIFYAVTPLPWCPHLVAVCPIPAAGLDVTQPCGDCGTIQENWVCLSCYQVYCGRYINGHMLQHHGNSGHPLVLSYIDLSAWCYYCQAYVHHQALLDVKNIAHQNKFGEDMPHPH

The subject of the next test is A549. Kind of test: cells. Type of test: functional, cell-based. The following applies: Homo sapiens, A549, 48 h.
The next test concerns the target Histone deacetylase. Type of test: protein assay, Homo sapiens. The settings on record: hela.
Another test addresses Histone deacetylase 1 (Homo sapiens, UniProt Q13547). The experiment in a line: Inhibition of human recombinant HDAC1 using p53 residues 379-382 (RHKKAc) as substrate.
A further test relates to HepG2. Kind of test: cells. The settings on record: Homo sapiens, HepG2, 48 h. In kind it is functional, cell-based.
A further test concerns HCT-116. The experiment in a line: cells. In kind it is functional, cell-based. The settings on record: Homo sapiens, HCT-116, 48 h.

Chain of Histone deacetylase 4 (P56524 whole entry, the tested form may be a part): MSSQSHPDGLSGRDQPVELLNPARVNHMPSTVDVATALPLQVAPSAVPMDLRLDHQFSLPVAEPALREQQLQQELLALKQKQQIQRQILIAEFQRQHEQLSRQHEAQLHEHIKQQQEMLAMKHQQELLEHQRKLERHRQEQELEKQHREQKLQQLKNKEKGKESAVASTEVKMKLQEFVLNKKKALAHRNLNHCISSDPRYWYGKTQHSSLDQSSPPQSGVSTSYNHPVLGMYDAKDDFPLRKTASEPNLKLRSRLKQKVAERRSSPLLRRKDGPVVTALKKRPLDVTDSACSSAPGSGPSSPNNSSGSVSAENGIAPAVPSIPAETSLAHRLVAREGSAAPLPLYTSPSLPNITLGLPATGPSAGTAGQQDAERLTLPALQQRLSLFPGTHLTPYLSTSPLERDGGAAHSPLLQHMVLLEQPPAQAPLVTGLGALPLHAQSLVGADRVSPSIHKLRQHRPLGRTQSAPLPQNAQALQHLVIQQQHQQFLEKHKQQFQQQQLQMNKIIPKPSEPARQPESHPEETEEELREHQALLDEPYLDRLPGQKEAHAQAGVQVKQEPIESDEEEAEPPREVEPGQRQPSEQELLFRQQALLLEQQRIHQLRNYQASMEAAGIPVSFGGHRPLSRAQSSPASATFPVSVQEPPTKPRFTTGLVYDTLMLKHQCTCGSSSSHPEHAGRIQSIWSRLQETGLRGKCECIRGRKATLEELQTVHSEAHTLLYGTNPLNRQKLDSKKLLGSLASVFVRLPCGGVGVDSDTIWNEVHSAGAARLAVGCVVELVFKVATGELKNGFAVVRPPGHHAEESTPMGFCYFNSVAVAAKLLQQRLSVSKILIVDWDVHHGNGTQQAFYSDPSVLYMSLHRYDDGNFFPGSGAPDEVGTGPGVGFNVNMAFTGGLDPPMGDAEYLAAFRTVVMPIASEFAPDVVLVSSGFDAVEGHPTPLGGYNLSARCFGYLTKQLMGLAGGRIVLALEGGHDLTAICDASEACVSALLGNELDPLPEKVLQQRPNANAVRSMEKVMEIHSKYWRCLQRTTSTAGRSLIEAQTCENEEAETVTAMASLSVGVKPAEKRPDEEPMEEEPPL
Chain of Histone deacetylase 1 (Q13547 whole entry, the tested form may be a part): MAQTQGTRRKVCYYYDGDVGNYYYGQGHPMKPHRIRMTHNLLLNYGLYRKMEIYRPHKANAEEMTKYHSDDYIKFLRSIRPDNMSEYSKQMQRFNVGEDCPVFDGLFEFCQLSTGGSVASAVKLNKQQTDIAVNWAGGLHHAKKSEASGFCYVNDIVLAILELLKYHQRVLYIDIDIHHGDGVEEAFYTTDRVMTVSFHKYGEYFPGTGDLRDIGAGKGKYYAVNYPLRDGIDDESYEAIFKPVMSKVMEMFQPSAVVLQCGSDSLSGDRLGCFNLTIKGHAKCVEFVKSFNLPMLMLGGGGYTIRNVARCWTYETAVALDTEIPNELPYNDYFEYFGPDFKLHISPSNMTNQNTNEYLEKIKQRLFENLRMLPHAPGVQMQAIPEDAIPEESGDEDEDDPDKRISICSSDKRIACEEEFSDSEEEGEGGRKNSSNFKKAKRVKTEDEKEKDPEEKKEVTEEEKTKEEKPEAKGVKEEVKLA

Consider `O=C(CCCCCCC(=O)Nc1ccc([C@H]2O[C@@H](CSc3nc(-c4ccccc4)c(-c4ccccc4)o3)C[C@@H](c3ccc(CO)cc3)O2)cc1)NO`, for which the Ratio IC50 in the test listed under Homo sapiens [1] turned out to be 7.
Turning to `CCN(CCc1ccc2c(c1)OCO2)Cc1ccc(/C=C/C(=O)NO)o1`, the IC50 was found to be 20 µM on Histone deacetylase 4, 0.48 µM in [3], 2.31 µM on Histone deacetylase and 7.88 µM on Histone deacetylase 1. For the same molecule, the Ratio IC50 is 41.9 in the test listed under Homo sapiens [2] and 16.6 in the test filed under Homo sapiens [1]. The EC50 in the test on PC-3 was 66.5 µM; in the test on A549, 84.7 µM; with HepG2, 81.7 µM; with HCT-116, 66 µM.
As for `O=C(/C=C/c1ccc(CN(CCCOc2ccccc2)Cc2ccc(-c3ccccc3)cc2)o1)NO`, the EC50 amounted to 25.2 µM in the test on PC-3, 16.6 µM with A549, 12.7 µM in the test with HepG2 and 2.05 µM in the test with HCT-116. Further, on Histone deacetylase, the IC50 was above 2.07 µM.
In the case of `O=C(/C=C/c1ccc(CN(CCCCOc2ccccc2)CCc2ccc3c(c2)OCO3)o1)NO`, the EC50 in the test on PC-3 came out at 15.5 µM; in the test on A549, 46.8 µM; in the test with HepG2, 97.7 µM; in the test on HCT-116, 35.9 µM. Besides, at Histone deacetylase, the IC50 was 1.57 µM.
As for `Cc1ccc(OCCN(CCc2ccc3c(c2)OCO3)Cc2ccc(/C=C/C(=O)NO)o2)cc1`, the IC50 on Histone deacetylase 4 amounted to 52.5 µM; in test [3], 4.65 µM; against Histone deacetylase, 0.84 µM; on Histone deacetylase 1, 17.8 µM. The figures for the Ratio IC50 in the test listed under Homo sapiens [2] and in the test filed under Homo sapiens [1] were 11.3 and 3.83, respectively. The EC50 with PC-3 was found to be 18.7 µM; in the test on A549 it was 27 µM; in the test on HepG2, 66.7 µM; in the test on HCT-116, 28.5 µM.
On to `O=C(/C=C/c1ccc(CN(CCCCOc2ccccc2)Cc2ccccc2)o1)NO`, for which the EC50 in the test on PC-3 worked out at 35.9 µM; with A549, 10.6 µM; with HepG2 it was 14.7 µM; with HCT-116 it was 6.43 µM. Also, the IC50 against Histone deacetylase turned out to be 2.12 µM.
The corresponding values for `CCCCCN(Cc1ccc(-c2ccccc2)cc1)Cc1ccc(/C=C/C(=O)NO)o1` are 13.4 µM, 14.7 µM, 19.7 µM, 8.23 µM and above 2.39 µM.
`CCCN(CCc1ccc2c(c1)OCO2)Cc1ccc(/C=C/C(=O)NO)o1`: the EC50 was found to be 7.57 µM with PC-3, 50.6 µM in the test with A549, 28.7 µM in the test with HepG2 and 15.9 µM in the test on HCT-116. On Histone deacetylase, this molecule showed an IC50 of 1.59 µM.
For `O=C(/C=C/c1ccc(CN(CCO)CCc2ccc3c(c2)OCO3)o1)NO` the same measures were 92.5 µM, 87.9 µM, 105 µM, 69.5 µM and 0.4 µM.
The corresponding values for `O=C(/C=C/c1ccc(CN(CCOc2ccccc2)CCc2ccc3c(c2)OCO3)o1)NO` are 23.7 µM, 37.4 µM, 68.3 µM, 30.6 µM and 2.36 µM.
Regarding `CC(C)CN(CCc1ccc2c(c1)OCO2)Cc1ccc(/C=C/C(=O)NO)o1`, the EC50 is 16.1 µM in the test on PC-3, 39.3 µM in the test with A549, 38 µM in the test with HepG2 and 17.1 µM in the test with HCT-116. This molecule showed an IC50 at Histone deacetylase above 2.69 µM.
As to `O=C(/C=C/c1ccc(CN(CCCOc2ccccc2)Cc2ccccc2)o1)NO`, the IC50 was found to be 12.3 µM on Histone deacetylase 4, 0.79 µM in [3], 1.48 µM at Histone deacetylase and 6.48 µM at Histone deacetylase 1. Moreover, the Ratio IC50 in the test filed under Homo sapiens [2] was determined as 15.6; in the test filed under Homo sapiens [1] it was 8.21. In addition, the EC50 in the test with PC-3 was found to be 44.9 µM; in the test with A549, 25.8 µM; in the test on HepG2 it was 15 µM; in the test with HCT-116 it was 7.24 µM.
For `CC(C)CN(Cc1ccccc1)Cc1ccc(/C=C/C(=O)NO)o1`, the IC50 on Histone deacetylase 4 stood at 12.3 µM; in test [3] it was 1.1 µM; at Histone deacetylase, 3.17 µM; on Histone deacetylase 1, 20.6 µM. Moreover, the Ratio IC50 in the test listed under Homo sapiens [2] amounted to 11.2; in the test filed under Homo sapiens [1] it was 18.7. In addition, the EC50 with PC-3 was found to be 18.8 µM; in the test on A549, 20.5 µM; with HepG2, 27.7 µM; with HCT-116 it was 26.3 µM.
In the case of `CCCCCN(CCc1ccc2c(c1)OCO2)Cc1ccc(/C=C/C(=O)NO)o1`, the EC50 in the test with PC-3 came out at 37.1 µM; in the test on A549 it was 72.5 µM; in the test with HepG2, 65.3 µM; with HCT-116 it was 74.8 µM. In addition, at Histone deacetylase, the IC50 turned out to be 3.49 µM.
The corresponding values for `O=C(/C=C/c1ccc(CN(CCCCOc2ccccc2)Cc2ccc(-c3ccccc3)cc2)o1)NO` are 23.6 µM, 22.4 µM, 32.9 µM, 2.76 µM and above 2.02 µM.
For `O=C(/C=C/c1ccc(CN(CCOc2ccccc2)Cc2ccc(-c3ccccc3)cc2)o1)NO` the same measures were 15.9 µM, 26.4 µM, 18.1 µM, 9.53 µM and 1.21 µM.
For the molecule `O=C(/C=C/c1ccc(CN(CCCOc2ccccc2)CCc2ccc3c(c2)OCO3)o1)NO`, the concentration for a half-maximal effect (EC50) in the test with PC-3 is 18.8 µM; in the test on A549, 16.3 µM; with HepG2, 110 µM; with HCT-116, 37.2 µM. The same molecule came in with an IC50 against Histone deacetylase above 2.22 µM.
The corresponding values for `CCCCCCN(Cc1ccccc1)Cc1ccc(/C=C/C(=O)NO)o1` are 23.8 µM, 11 µM, 21.8 µM, 8.96 µM and 2.65 µM.
Consider `CCCCCCCCN(Cc1ccc(-c2ccccc2)cc1)Cc1ccc(/C=C/C(=O)NO)o1`, for which the EC50 in the test on PC-3 was 36.8 µM; in the test on A549 it was 28.8 µM; in the test on HepG2, 36.9 µM; with HCT-116, 10.4 µM. The same molecule returned an IC50 on Histone deacetylase above 2.17 µM.
The corresponding values for `Cc1ccc(OCCCCN(Cc2ccc(-c3ccccc3)cc2)Cc2ccc(/C=C/C(=O)NO)o2)cc1` are 37.6 µM, 15.6 µM, 15.9 µM, 2.76 µM and above 1.96 µM.
For `CC(C)N(Cc1ccc(-c2ccccc2)cc1)Cc1ccc(/C=C/C(=O)NO)o1` the same measures were 24.2 µM, 15.6 µM, 15.5 µM, 2.74 µM and 1.61 µM.
For `CCCCN(CCc1ccc2c(c1)OCO2)Cc1ccc(/C=C/C(=O)NO)o1` the same measures were 33.2 µM, 78.2 µM, 54.3 µM, 17 µM and above 2.69 µM.
Regarding `Cc1ccc(OCCCN(Cc2ccc(-c3ccccc3)cc2)Cc2ccc(/C=C/C(=O)NO)o2)cc1`, the EC50 in the test on PC-3 stood at 18.1 µM; in the test with A549, 11.5 µM; in the test on HepG2 it was 11.7 µM; with HCT-116 it was 2.22 µM. The molecule also displayed an IC50 against Histone deacetylase of 1.66 µM.
Take `O=C(/C=C/c1ccc(CN(Cc2ccccc2)Cc2ccc(-c3ccccc3)cc2)o1)NO`: the EC50 stood at 14.3 µM in the test with PC-3, 69.8 µM in the test with A549, 66.6 µM in the test on HepG2 and 9.01 µM in the test on HCT-116. In addition, the IC50 against Histone deacetylase is above 2.55 µM.
For `O=C(/C=C/c1ccc(CN(CCc2ccc3c(c2)OCO3)Cc2ccccc2)o1)NO` the same measures were 34.5 µM, 35.4 µM, 73.2 µM, 91.4 µM and 2.28 µM.
